This note sets out measurements from EPA's CvTdb concentration-time database.

The subject of series [1] is Rat. The series can be described thus: concentration in plasma after dosing. The settings on record: 2.5 min; dosed: Wyeth-14643; 2.0 mg/kg; iv; Male; Sprague-Dawley.
Series [2] relates to Rat. Kind of series: concentration in heart after dosing. The following applies: 40 min; dosed: Bis 2-Chloroethoxy Methane; 20 mg/kg; iv; Female; F344.
The test system of series [3] is Rat. Kind of series: concentration in plasma after dosing. The settings on record: 10 min; dosed: Bis 2-Chloroethoxy Methane; 20 mg/kg; iv; Female; F344.
Series [4] deals with Rat. Kind of series: concentration in plasma after dosing. The settings on record: 10 min; dosed: Bis 2-Chloroethoxy Methane; 20 mg/kg; iv; Male; F344.
In series [5] the test system is Rat. The series can be described thus: concentration in brain after dosing. The following applies: 3 h; dosed: Fluorotelomer alcohol 8+2; 24 mg/kg; oral; Male; Harlan Sprague Dawley.
Series [6] relates to Rat. Kind of series: concentration in liver after dosing. The settings on record: 12 h; dosed: Fluorotelomer alcohol 8+2; 80 mg/kg; oral; Female; Harlan Sprague Dawley.
Series [7] relates to Rat. The series can be described thus: concentration in brain after dosing. The settings on record: 6 h; dosed: Fluorotelomer alcohol 8+2; 24 mg/kg; oral; Male; Harlan Sprague Dawley.
Series [8] has as its system Rat. The series can be described thus: concentration in liver after dosing. The following applies: 12 h; dosed: Fluorotelomer alcohol 8+2; 24 mg/kg; oral; Male; Harlan Sprague Dawley.
Series [9] deals with Rat. The series can be described thus: concentration in liver after dosing. The following applies: 1 h; dosed: Fluorotelomer alcohol 8+2; 80 mg/kg; oral; Female; Harlan Sprague Dawley.
The test system of series [10] is Rat. The series can be described thus: concentration in plasma after dosing. The settings on record: dosed: Fluorotelomer alcohol 8+2, 24 mg/kg, oral, Male, Harlan Sprague Dawley.
For series [11], the system named is Rat. Kind of series: concentration in kidney after dosing. The following applies: 1 h; dosed: Fluorotelomer alcohol 8+2; 24 mg/kg; oral; Male; Harlan Sprague Dawley.
Series [12] deals with Rat. Kind of series: concentration in plasma after dosing. The settings on record: dosed: Fluorotelomer alcohol 8+2, 40 mg/kg, iv, Female, Harlan Sprague-Dawley.
The test system of series [13] is Rat. Kind of series: concentration in plasma after dosing. The following applies: 1 h; dosed: Di-n-butyl phthalate; 100 mg/kg; oral; Male; Sprague-Dawley.
The subject of series [14] is Rat. The series can be described thus: concentration in plasma after dosing. The settings on record: 20 h; dosed: Di-n-butyl phthalate; 200 mg/kg; oral; Male; Sprague-Dawley.
Series [15] relates to Rat. The series can be described thus: concentration in brain after dosing. The following applies: 24 h; dosed: Perfluorodecanoic acid; 10 mg/kg; oral; Female; Harlan Sprague Dawley.
In series [16] the test system is Rat. The series can be described thus: concentration in liver after dosing. The following applies: 24 h; dosed: Perfluorodecanoic acid; 10 mg/kg; oral; Female; Harlan Sprague Dawley.
Series [17] has as its system Rat. Kind of series: concentration in liver after dosing. The following applies: 864 h; dosed: Perfluorodecanoic acid; 10 mg/kg; oral; Male; Harlan Sprague Dawley.
Series [18] relates to Rat. The series can be described thus: concentration in plasma after dosing. The following applies: dosed: Perfluorodecanoic acid, 2 mg/kg, iv, Male, F344.
Series [19] concerns Rat. The series can be described thus: concentration in kidney after dosing. The following applies: 1 h; dosed: Perfluorodecanoic acid; 10 mg/kg; oral; Female; Harlan Sprague Dawley.
Series [20] has as its system Rat. The series can be described thus: concentration in kidney after dosing. The following applies: 1848 h; dosed: Perfluorodecanoic acid; 10 mg/kg; oral; Female; Harlan Sprague Dawley.
The test system of series [21] is Rat. Kind of series: concentration in plasma after dosing. The following applies: 22 h; dosed: Primidone; 80 mg/kg; oral; Female; F344.
The subject of series [22] is Rat. Kind of series: concentration in plasma after dosing. The settings on record: 3 h; dosed: Primidone; 130 mg/kg; oral; Male; Harlan Sprague Dawley.
For series [23], the system named is Rat. The series can be described thus: concentration in plasma after dosing. The following applies: 6 h; dosed: Primidone; 30 mg/kg; oral; Male; F344.
Series [24] has as its system Rat. The series can be described thus: concentration in heart after dosing. The following applies: 10 min; dosed: Thiodiglycolic Acid; 20 mg/kg; iv; Male; F344.
The test system of series [25] is Rat. Kind of series: concentration in heart after dosing. The following applies: 2 h; dosed: Thiodiglycolic Acid; 20 mg/kg; iv; Male; Harlan Sprague Dawley.
Series [26] concerns Rat. Kind of series: concentration in heart after dosing. The following applies: 8 h; dosed: Thiodiglycolic Acid; 20 mg/kg; iv; Female; Harlan Sprague Dawley.
The subject of series [27] is Rat. Kind of series: concentration in heart after dosing. The following applies: 20 min; dosed: Thiodiglycolic Acid; 20 mg/kg; iv; Female; F344.
For series [28], the system named is Rat. The series can be described thus: concentration in plasma after dosing. The settings on record: 1 h; dosed: Thiodiglycolic Acid; 20 mg/kg; iv; Male; Harlan Sprague Dawley.
For series [29], the system named is Rat. Kind of series: concentration in thymus after dosing. The settings on record: 10 min; dosed: Thiodiglycolic Acid; 20 mg/kg; iv; Male; F344.
Series [30] deals with Rat. Kind of series: concentration in plasma after dosing. The following applies: 20 min; dosed: Thiodiglycolic Acid; 20 mg/kg; iv; Female; Harlan Sprague Dawley.
Series [31] relates to Rat. The series can be described thus: concentration in thymus after dosing. The following applies: 3 h; dosed: Thiodiglycolic Acid; 20 mg/kg; iv; Female; Harlan Sprague Dawley.
Series [32] has as its system Rat. Kind of series: concentration in plasma after dosing. The settings on record: 5.333 h; dosed: Thiodiglycolic Acid; 20 mg/kg; iv; Male; Harlan Sprague Dawley.
The test system of series [33] is Rat. Kind of series: concentration in thymus after dosing. The settings on record: 4 h; dosed: Thiodiglycolic Acid; 20 mg/kg; iv; Male; Harlan Sprague Dawley.
The test system of series [34] is Rat. The series can be described thus: concentration in plasma after dosing. The following applies: 4 h; dosed: Thiodiglycolic Acid; 20 mg/kg; iv; Male; Harlan Sprague Dawley.
Series [35] relates to Rat. The series can be described thus: concentration in plasma after dosing. The following applies: 20 min; dosed: dichloroacetic acid; 10 mg/kg; iv; Male; F344.

As for `Cc1cccc(Nc2cc(Cl)nc(SCC(=O)O)n2)c1C`, the concentration in plasma in series [1] was 29300 ng/mL.
Take `ClCCOCOCCCl` [Bis 2-Chloroethoxy Methane]: the concentration in heart in [2] was 3630 ng/g. Further, the concentration in plasma in series [3] is 9470 ng/mL; in series [4] it was 9480 ng/mL.
Regarding `OCCC(F)(F)C(F)(F)C(F)(F)C(F)(F)C(F)(F)C(F)(F)C(F)(F)C(F)(F)F` [Fluorotelomer alcohol 8+2], the concentration in brain stood at 1780 ng/g in [5] and 544 ng/g in series [7]. For the same molecule, the concentration in liver in series [6] came out at 1160 ng/g; in series [8], 719 ng/g; in series [9], 7790 ng/g. The concentration in plasma in [10] (5 min) came out at 6.79 ng/mL; in series [10] (9 h), 23.5 ng/mL; in [12] (1 h), 2530 ng/mL; in [12] (24 h) it was 24.5 ng/mL. The concentration in kidney in series [11] was 1140 ng/g.
With `CCCCOC(=O)c1ccccc1C(=O)O` [Mono-n-butyl phthalate], the concentration in plasma in series [13] is 14900 ng/mL; in [14], 1870 ng/mL.
The molecule `O=C(O)C(F)(F)C(F)(F)C(F)(F)C(F)(F)C(F)(F)C(F)(F)C(F)(F)C(F)(F)C(F)(F)F` [Perfluorodecanoic acid] had a concentration in brain in series [15] of 1820 ng/g. The concentration in liver in series [16] was 139000 ng/g; in series [17] it was 54300 ng/g. Moreover, the concentration in plasma in series [18] (5 min) worked out at 7330 ng/mL; in series [18] (192 h) it was 3130 ng/mL; in series [18] (2520 h), 200 ng/mL. For the same molecule, the concentration in kidney in [19] was determined as 22800 ng/g; in series [20], 10100 ng/g.
Take `CCC1(c2ccccc2)C(=O)NC(=O)NC1=O` [Phenobarbital]: the concentration in plasma is 1710 ng/mL in series [21], 1210 ng/mL in series [22] and 3110 ng/mL in series [23].
In the case of `O=C(O)CSCC(=O)O` [Thiodiglycolic Acid], the concentration in heart in [24] is 8210 ng/g; in series [25], 1310 ng/g; in [26] it was 376 ng/g; in [27], 3820 ng/g. Further, the concentration in plasma in series [28] is 2150 ng/mL; in series [30], 11700 ng/mL; in series [32], 198 ng/mL; in series [34], 339 ng/mL. Besides, the figures for the concentration in thymus in [29], in series [31] and in series [33] were 9340 ng/g, 1030 ng/g and 904 ng/g, respectively.
Take `O=C(O)C(Cl)Cl` [dichloroacetic acid]: the concentration in plasma in series [35] came to 2260 ng/mL.
